Reference: paper PMC6353898, “A Rational Approach for Creating Peptides Mimicking Antibody Binding” (Scientific Reports, 2019)
Like-named read-outs stand apart in the source and are kept apart here. Square brackets hold non-standard residues; d marks the D form. Ends that are not written are not given here. Peptide text beside a SMILES is read from it. * marks the point of attachment. Dolaproine = CO[C@@H]([C@@H]1CCCN1)[C@@H](C)C(=O)O; Dil = CC[C@H](C)[C@H](NC)[C@@H](CC(=O)O)OC; X1 = C[C@@H](N*)[C@@H](O)c1ccccc1; NMeV = CN[C@H](C(=O)O)C(C)C

Assays:
HEK 293 cells = assay: In vitro cytotoxicity (SRB), HEK 293; format: cell-based, human
Description: (§1) Cells were cultured to 80% confluency in T75 culture flasks using DMEM as growth medium, respectively. The cells were seeded onto 96 well plates and grown for 24 h to reach 50% confluency.
(§2) At the end of the incubation period, the cells were fixed using 10% trichloroacetic acid, followed by washing with distilled water and drying. The cellular proteins were stained using 50 μL of 0.4% Sulforhodamine B (SRB) in 1% acetic acid. Unbound SRB was washed with 1% acetic acid and the plates were dried overnight. The cell bound SRB was then solubilized using 200 μL of 10 mM unbuffered tris base solution. SRB absorbance was measured at 560 nm wavelength using a plate reader. The percent viabilities of cells were plotted as a function of log concentration and data was analyzed in GraphPad Prism Version 5.0 software (GraphPad Software Inc, CA, USA) using nonlinear-regression curve fit (variable slope four parameter equation).

MDA MB 468 cells = assay: In vitro cytotoxicity (SRB), MDA MB 468; format: cell-based, human
Description: as §1, §2

A431 cells = assay: In vitro cytotoxicity (SRB), A431; format: cell-based
Description: as §1, §2

[1] = biological target: EGFR recombinant human protein (Homo sapiens, UniProt P00533); assay: Surface plasmon resonance, EGFR as immobilized surface; format: binding; settings: SPR, 25 °C, PBS with 0.01% Tween 20 pH 7.4
Description: All experiments were carried out at 25 °C.

[2] = biological target: bovine serum albumin (BSA) (Bos taurus, UniProt P02769); settings: pH 7.4
bovine serum albumin (BSA), sequence (P02769 25-607): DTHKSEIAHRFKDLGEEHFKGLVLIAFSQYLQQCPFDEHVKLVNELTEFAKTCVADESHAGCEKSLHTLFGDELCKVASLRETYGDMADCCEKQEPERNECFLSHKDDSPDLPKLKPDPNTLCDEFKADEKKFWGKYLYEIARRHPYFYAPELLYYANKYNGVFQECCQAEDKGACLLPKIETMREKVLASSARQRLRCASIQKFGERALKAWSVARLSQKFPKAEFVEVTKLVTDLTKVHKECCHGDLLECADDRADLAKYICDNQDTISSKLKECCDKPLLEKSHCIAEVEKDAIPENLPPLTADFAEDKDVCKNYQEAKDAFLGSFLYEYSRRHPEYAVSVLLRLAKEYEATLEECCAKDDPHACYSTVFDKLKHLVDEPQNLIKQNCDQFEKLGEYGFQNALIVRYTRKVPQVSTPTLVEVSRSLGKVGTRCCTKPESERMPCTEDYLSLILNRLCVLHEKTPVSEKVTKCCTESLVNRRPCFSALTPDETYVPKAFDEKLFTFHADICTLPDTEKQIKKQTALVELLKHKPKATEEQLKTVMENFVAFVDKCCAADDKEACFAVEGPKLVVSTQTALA
Description: Surface plasmon resonance (SPR) studies were conducted using the Dual Channel SPR Spectrometer SPR7000DC (Reichert Technologies, New York, USA) to determine the binding affinity of peptides to EGFR protein. All experiments were carried out at 25 °C. Phosphate buffer saline (PBS) with 0.01% Tween 20 (pH7.4) was filtered and thoroughly degassed before use. EGFR (20 µg/mL) recombinant human protein and bovine serum albumin (BSA 20 µg/mL) were covalently attached to the left channel of 500,000 Da carboxymethylated dextran sensor chips using 1-ethyl-3-(3-dimethylaminopropyl)-carbodiimide (EDC) and N-hydroxysuccinimide (NHS) chemistry. The chips were then blocked by passing ethanolamine for 8 minutes at a rate of 10 µL/min.
All peptides were injected as soluble analytes in PBS with 0.01% Tween 20 at different concentrations with an injection speed at 15 µL/min. […] The bound surface was regenerated by sequential injections of 10 mM glycine in PBS (pH 2.5).
The sensorgrams from SPR were globally treated using Scrubber 2 software (BioLogic Software Pty Ltd, Australia), and kinetic constants kon and koff were determined by global fitting analyses of the titration curves using the 1:1 Lagmurian interaction model considering the mass transport. The equilibrium dissociation constant (KD) was calculated from the koff/kon ratio.

EGFR recombinant human protein, sequence (P00533 25-645 limits assumed): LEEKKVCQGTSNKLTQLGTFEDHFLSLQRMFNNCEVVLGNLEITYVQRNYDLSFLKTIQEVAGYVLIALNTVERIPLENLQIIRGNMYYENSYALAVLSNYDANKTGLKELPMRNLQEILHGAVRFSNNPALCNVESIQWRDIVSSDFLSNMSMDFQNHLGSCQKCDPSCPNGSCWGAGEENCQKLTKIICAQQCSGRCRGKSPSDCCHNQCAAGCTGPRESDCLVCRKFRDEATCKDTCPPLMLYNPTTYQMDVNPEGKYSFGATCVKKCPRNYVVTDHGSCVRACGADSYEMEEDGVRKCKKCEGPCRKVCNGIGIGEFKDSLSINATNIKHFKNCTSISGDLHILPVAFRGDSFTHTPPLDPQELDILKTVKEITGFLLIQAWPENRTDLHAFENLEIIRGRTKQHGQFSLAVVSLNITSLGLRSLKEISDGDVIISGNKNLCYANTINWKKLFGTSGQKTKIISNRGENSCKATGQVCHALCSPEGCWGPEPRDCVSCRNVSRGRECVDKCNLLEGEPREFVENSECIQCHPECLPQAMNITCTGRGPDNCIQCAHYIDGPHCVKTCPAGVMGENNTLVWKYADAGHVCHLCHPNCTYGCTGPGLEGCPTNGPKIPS

## CC[C@H](C)[C@@H]([C@@H](CC(=O)N1CCC[C@H]1[C@H](OC)[C@@H](C)C(=O)N[C@H](C)[C@@H](O)c1ccccc1)OC)N(C)C(=O)[C@@H](NC(=O)[C@@H](NC)C(C)C)C(C)C [MMAE, Monomethyl Auristatin E, reference compound] (H-[NMeV]V[Dil][Dolaproine]-X1)
HEK 293 cells; SRB, 72 hours at 37 °C, 0.00001 to 10000 nM, read-out: IC50 (HEK 293)
  IC50: 0.0626 nM
MDA MB 468 cells; SRB, 72 hours at 37 °C, 0.00001 to 10000 nM, read-out: IC50 (MDA MB 468)
  IC50: 0.0117 nM
A431 cells; SRB, 72 hours at 37 °C, 0.00001 to 10000 nM, read-out: IC50 (A431)
  IC50: 0.0246 nM

## SGEWAYDGYEPNFG [Pep25]
[1]
  KD EGFR / binding to EGFR, no value: did not bind

## WSGENGPGFYDYEA [Pep11]
HEK 293 cells; 72 h
  IC50: 1040 nM
[2]
  KD BSA / binding to BSA, no value: did not show binding
MDA MB 468 cells; 72 h
  IC50: 420 nM
A431 cells; 72 h
  IC50: 388 nM
